Measured values reported in patent US9156811B2 (priority 2008, dated 2015).

These compounds were tested on Trypanosome (T. brucei brucei) (assay: In-vitro antitrypanosomal efficacy assay (cell growth, resazurin)). Settings: T. brucei cell growth.
Type: cell-based
Experimental: To column 12, 200 μl media was added to provide a no cells control. Plates were then incubated at 37° C. in an atmosphere of 5% CO2 for 69 hours, before the addition of 20 μl of 500 μM rezasurin solution, and a further incubation period of 4 hours. […] Concentration effect curves were fitted using non-linear regression using XLFit 4.2 and EC50 values determined.
For Cc1nn(C)c(C)c1N[S+](=O)([O-])c1ccc(-c2cccc(CNCCN(C)C)c2)cc1 [DDD86316, 3′-[(2-Dimethylamino-ethylamino)-methyl]biphenyl-4-sulfonic acid (1,3,5-trimethyl-1H-pyrazol-4-yl)-amide], the “ED50 (μM) T. brucei” value was 5.0 µM. With Cc1nn(C)c(C)c1N[S+](=O)([O-])c1ccc(-c2cccc(CN3CCNCC3)c2)cc1 [DDD86317, 3′-piperazin-1-ylmethyl-biphenyl-4-sulfonic acid (1,3,5-trimethyl-1H-pyrazol-4-yl)-amide] the “ED50 (μM) T. brucei” value was 0.02 µM. In the case of Cc1nn(C)c(C)c1N[S+](=O)([O-])c1ccc(-c2cccc(CN3CCCC3)c2)cc1 [DDD86318, 3′-Pyrrolidin-1-ylmethyl-biphenyl-4-sulfonic acid (1,3,5-trimethyl-1H-pyrazol-4-yl)-amide], the “ED50 (μM) T. brucei” value is reported as 0.21 µM. With Cc1nn(C)c(CC(C)C)c1N[S+](=O)([O-])c1c(Cl)cc(-c2ccnc(N3CCNCC3)c2)cc1Cl [DDD86467, 2,6-Dichloro-N-(5-isobutyl-1,3-dimethyl-1H-pyrazol-4-yl)-4-(2-piperazin-1-yl-pyridin-4-yl)-benzenesulfonamide] the “ED50 (μM) T. brucei” value was 0.003 µM. For Cc1noc(C)c1N[S+](=O)([O-])c1c(Cl)cc(-c2ccnc(N3CCNCC3)c2)cc1Cl [DDD86468, 2,6-Dichloro-N-(3,5-dimethyl-isoxazol-4-yl)-4-(2-piperazin-1-yl-pyridin-4-yl)-benzenesulfonamide], the “ED50 (μM) T. brucei” value was 0.20 µM. Cc1nn(C)c(C)c1N[S+](=O)([O-])c1c(Cl)cc(C#CCN2CCN(C)CC2)cc1Cl [DDD86469, 2,6-Dichloro-4-[3-(4-methyl-piperazin-1-yl)-prop-1-ynyl]-N-(1,3,5-trimethyl-1H-pyrazol-4-yl)-benzenesulfonamide] was tested, and the “ED50 (μM) T. brucei” value was 0.55 µM. With Cc1nn(C)cc1N[S+](=O)([O-])c1ccc(-c2ccnc(N3CCNCC3)c2)cc1 [DDD86471, N-(1,3-Dimethyl-1H-pyrazol-4-yl)-4-(2-piperazin-1-yl-pyridin-4-yl)-benzenesulfonamide] the “ED50 (μM) T. brucei” value was 0.009 µM. For Cc1nn(C)c(C)c1N[S+](=O)([O-])c1ccc(NCCN2CCN(Cc3ccccc3)CC2)nc1 [DDD86472], the “ED50 (μM) T. brucei” value was >1 µM. With Cc1nn(C)c(C)c1N[S+](=O)([O-])c1ccc(N2CCC(NC3CCN(Cc4ccccc4)C3)CC2)nc1 (stereo not shown) [DDD86473] the “ED50 (μM) T. brucei” value was >1 µM. In the case of Cn1cc(N[S+](=O)([O-])c2ccc(-c3ccnc(N4CCNCC4)c3)cc2)cn1 [DDD86474, N-(1-Methyl-1H-pyrazol-4-yl)-4-(2-piperazin-1-yl-pyridin-4-yl)-benzenesulfonamide], the “ED50 (μM) T. brucei” value is reported as 0.65 µM. With Cc1nn(C)cc1N[S+](=O)([O-])c1c(Cl)cc(-c2ccnc(N3CCNCC3)c2)cc1Cl [DDD86475, 2,6-Dichloro-N-(1,3-dimethyl-1H-pyrazol-4-yl)-4-(2-piperazin-1-yl-pyridin-4-yl)-benzenesulfonamide] the “ED50 (μM) T. brucei” value was 0.003 µM. Cc1nn(C)c(C)c1N[S+](=O)([O-])c1ccc(N2CCC(N3CCCCC3)C2)nc1 (stereo not shown) [DDD86477] was tested, and the “ED50 (μM) T. brucei” value was >1 µM. With Cn1cc(N[S+](=O)([O-])c2c(Cl)cc(-c3ccnc(N4CCNCC4)c3)cc2Cl)cn1 [DDD86478, 2,6-Dichloro-N-(1-methyl-1H-pyrazol-4-yl)-4-(2-piperazin-1-yl-pyridin-4-yl)-benzenesulfonamide] the “ED50 (μM) T. brucei” value was 0.24 µM. Cc1nn(C)c(C)c1N[S+](=O)([O-])c1ccc(-c2ccnc(N3CCNC(C)C3)c2)cc1 (stereo not shown) [DDD87748] was tested, and the “ED50 (μM) T. brucei” value was 0.001 µM. In the case of Cc1nn(C)c(C)c1N[S+](=O)([O-])c1ccc(-c2ccnc(N3CCCCC3)c2)cc1 [DDD87749, 4-(3,4,5,6-Tetrahydro-2H-[1,2′]bipyridinyl-4′-yl)-N-(1,3,5-trimethyl-1H-pyrazol-4-yl)-benzenesulfonamide], the “ED50 (μM) T. brucei” value is reported as 1.28 µM. In the case of Cc1nn(C)c(C)c1N[S+](=O)([O-])c1ccc(-c2cccc(CCO)c2)cc1 [DDD87751, 3′-(2-Hydroxy-ethyl)-biphenyl-4-sulfonic acid (1,3,5-trimethyl-1H-pyrazol-4-yl)-amide], the “ED50 (μM) T. brucei” value is reported as >1 µM. Cc1nn(C)c(C)c1N[S+](=O)([O-])c1ccc(-c2cccc(CN3CCNC(c4ccccc4)C3)c2)cc1 (stereo not shown) [DDD87754, 3′-(3-Phenyl-piperazin-1-ylmethyl)-biphenyl-4-sulfonic acid (1,3,5-trimethyl-1H-pyrazol-4-yl)-amide] was tested, and the “ED50 (μM) T. brucei” value was 1.6 µM. For Cc1nn(C)c(C)c1N[S+](=O)([O-])c1ccc(N2CCCC(N3CCNCC3)C2)nc1 (stereo not shown) [DDD87757], the “ED50 (μM) T. brucei” value was 0.003 µM. In the case of CCN(CC)Cc1ccccc1-c1ccc([S+](=O)([O-])Nc2c(C)nn(C)c2C)cc1 [DDD87758, 2′-Diethylaminomethyl-biphenyl-4-sulfonic acid (1,3,5-trimethyl-1H-pyrazol-4-yl)-amide], the “ED50 (μM) T. brucei” value is reported as >1 µM. For Cc1nn(C)c(C)c1NS(=O)(=O)c1ccc(-c2ccnc(N3CC(C)NC(C)C3)c2)cc1 (stereo not shown) [DDD87761, 4-[2-(3,5-Dimethyl-piperazin-1-yl)-pyridin-4-yl]-N-(1,3,5-trimethyl-1H-pyrazol-4-yl)-benzenesulfonamide], the “ED50 (μM) T. brucei” value was 0.02 µM. Cc1nn(C)c(C)c1N[S+](=O)([O-])c1ccc(-c2ccccc2CN2CCN(C)CC2)cc1 [DDD87764, 2′-(4-Methyl-piperazin-1-ylmethyl)-biphenyl-4-sulfonic acid (1,3,5-trimethyl-1H-pyrazol-4-yl)-amide] was tested, and the “ED50 (μM) T. brucei” value was >1 µM. For Cc1nn(C)c(C)c1N[S+](=O)([O-])c1ccc(-c2cccc(CNCc3ccccc3)c2)cc1 [DDD87765, 3′-(Benzylamino-methyl)-biphenyl-4-sulfonic acid (1,3,5-trimethyl-1H-pyrazol-4-yl)-amide], the “ED50 (μM) T. brucei” value was >1 µM. With Cc1nn(C)c(C)c1N(C)[S+](=O)([O-])c1ccc(Br)cc1 [DDD87766, 4-Bromo-N-methyl-N-(1,3,5-trimethyl-1H-pyrazol-4-yl)-benzenesulfonamide] the “ED50 (μM) T. brucei” value was >1 µM. With Cc1nn(C)c(C)c1N[S+](=O)([O-])c1ccc(-c2cccc(C3CCNCC3)c2)cc1 [DDD87768, 3′-Piperidin-4-yl-biphenyl-4-sulfonic acid (1,3,5-trimethyl-1H-pyrazol-4-yl)-amide] the “ED50 (μM) T. brucei” value was 0.06 µM. Cc1nn(C)c(C)c1N[S+](=O)([O-])c1c(Cl)cc(CCCN2CCN(C)CC2)cc1Cl [DDD87769, 2,6-Dichloro-4-[3-(4-methyl-piperazin-1-yl)-propyl]-N-(1,3,5-trimethyl-1H-pyrazol-4-yl)-benzenesulfonamide] was tested, and the “ED50 (μM) T. brucei” value was 0.008 µM. With Cc1ncccc1N[S+](=O)([O-])c1ccc(-c2ccnc(N3CCNCC3)c2)cc1 [DDD87994, N-(2-Methyl-pyridin-3-yl)-4-(2-piperazin-1-yl-pyridin-4-yl)-benzenesulfonamide] the “ED50 (μM) T. brucei” value was 0.11 µM. In the case of Cc1c(N[S+](=O)([O-])c2ccc(-c3ccnc(N4CCNCC4)c3)cc2)cnn1C [DDD87995, N-(1,5-Dimethyl-1H-pyrazol-4-yl)-4-(2-piperazin-1-yl-pyridin-4-yl)-benzenesulfonamide], the “ED50 (μM) T. brucei” value is reported as 0.02 µM. In the case of Cc1nn(C)c(C)c1N[S+](=O)([O-])c1ccc(C#CCN2CCN(C)CC2)cc1 [DDD87999, 4-[3-(4-Methyl-piperazin-1-yl)-prop-1-ynyl]-N-(1,3,5-trimethyl-1H-pyrazol-4-yl)-benzenesulfonamide], the “ED50 (μM) T. brucei” value is reported as >1 µM.
